The numbers were not newly measured in patent US6924273B2, “Chondroprotective/restorative compositions and methods of use thereof” (priority 2000, dated 2005), which cites them from elsewhere.

The conditions of series [1]: oral administration.
The next series deals with rats. The settings on record: 5000 mg/kg orally.
Another series relates to mice. The settings on record: 5000 mg/kg orally.
The conditions of series [2]: oral administration. This is another data set of the same source.

Consider `N[C@H]1C(O)O[C@H](CO)[C@@H](O)[C@@H]1O` (some centres unmarked) [Glucosamine], for which the solubility in water result is given as “very soluble in water”.

For the molecule Chondroitin sulfate [CS], the bioavailability entry in series [1] is on record as “around 15%”.

As for `N[C@H]1C(O)O[C@H](CO)[C@@H](O)[C@@H]1O.O=S(=O)(O)O` (some centres unmarked) [Glucosamine sulfate], the “mortality (no LD50 established)” value in the series with rats and with mice was “no mortality” each time. Also, the absorbed entry in series [2] is “greater than 90%”.
